Source: US11767374B2, “Method and use of Radix puerariae polysaccharide in promoting lipid-lowering activity” (JIANGXI UNIVERSITY OF TRADITIONAL CHINESE MEDICINE, priority 2020, dated 2023)

Tested on: high-cholesterol hyperlipidemia rats
Test: In vivo lipid-lowering experiment in high-cholesterol hyperlipidemia rats
Set-up: species or system Wistar rats
Details: plasma, positive drug 8 mg/kg, half a month
From the text: 56 male Wistar rats (8 weeks old, body weight: 200 g±20 g) were purchased from Beijing Vital River Laboratory Animal Technology Co., Ltd. All animals were fed with a normal diet adaptively for 1 week.
The rats were sampled every half month to determine the plasma total triglyceride (TG), total cholesterol (TC), low-density lipoprotein (LDL-C), and high-density lipoprotein (HDL-C) levels. 2 months later, all rats were anesthetized with isoflurane, and then blood samples were collected from the orbital vein using capillary tubes. The blood samples were centrifuged (4° C., 4,000 r×min^−1, and 15 min) to obtain plasma samples, a kit (purchased from Nanjing Jiancheng Biotechnology Co., Ltd., China) was used to make a standard curve, and a chromogenic reaction was conducted according to specified steps to determine the plasma TG, TC, LDL-C, and HDL-C levels, thereby determining whether hyperlipidemia models were successfully constructed.
The rats were intragastrically administered for half a month. The night before the experiment, the rats were fasted; and on the day of the experiment, the rats were weighed and resulting body weights were recorded. The rats were anesthetized with isoflurane, then blood was collected from the orbit and placed in a heparin sodium centrifuge tube, and blood samples were centrifuged (4° C., 4,000 r×min^−1, and 15 min) to obtain plasma samples. A kit (purchased from Nanjing Jiancheng Biotechnology Co., Ltd., China) was used to make a standard curve, and the plasma TG, TC, LDL-C, and HDL-C levels were determined according to specified steps. The rats were sacrificed through cervical dislocation, and then a liver tissue was collected and weighed. A liver index was calculated according to the following formula: liver index=liver weight (g)/rat weight (g).
Data analysis: In this experiment, the SPSS11.5 version was used to analyze data (3 repetitions), and analysis of variance (ANOVA) and intergroup Duncan multiple comparison were adopted.

Q: CCC(C)(C)C(=O)O[C@H]1C[C@@H](C)C=C2C=C[C@H](C)[C@H](CC[C@@H]3C[C@@H](O)CC(=O)O3)[C@H]21 [Simvastatin, simvastatin] was tested. Which HDL-C did it give?
A: 2.89 ± 0.44 b mmol/L

Q: What about the LDL-C of the same compound?
A: 0.51 ± 0.09 b mmol/L

Q: And the TG?
A: 0.87 ± 0.27 c mg/mL
